Experimental data: patent US11332438B2, “Creatine prodrugs, compositions and methods of use thereof” (Ultragenyx Pharmaceutical Inc., priority 2017, dated 2022)

Legend:
[1] = Chemical stability in simulated gastric fluid (SGF) without pepsin; type: physicochemical; settings: 50 μM prodrug
Protocol: (§1) Chemical stability of creatine prodrugs in phosphate buffered saline (PBS), simulated intestinal fluid (SIF) without pancreatin, simulated gastric fluid (SGF) without pepsin were determined by LC-UV, LC-CAD, LC-UV-CAD or LC-MS/MS as appropriate. Creatine prodrugs of the present disclosure (50 μM) were incubated at 37° C. according to described protocols and prodrug levels were compared between t=0, t=15, t=60, and t=120 mins by peak area ratio to determine the percentage remained at t=120 mins (2 h).
(§2) Protocol for PBS, SIF and SGF stability for screening:
(§3) Prodrugs (50 μM) were incubated in PBS, FaSSIF (Biorelevant) or FaSSGF (Biorelevant) at 37° C.

[2] = Liver microsome stability, human; type: in vitro ADME; settings: liver microsomes, read-out: Microsome Stability Human t1/2
Protocol: (§4) The stabilities of creatine prodrugs can be evaluated in one or more in vitro systems using a variety of preparations following methods known in the art. Experimental conditions useful for the in vitro studies are described in Table 1. Prodrug is added to each preparation in triplicate. […]
(§5) Protocol for Microsomal Stability:
(§6) For reference compound, a 500 μM spiking solution was prepared: add 10 μL of 10 mM DMSO stock solution into 190 μL ACN. […] For test compound, a 5 mM spiking solution was prepared: add 10 μL of 10 mM DMSO stock solution into 10 μL ACN. […] NADPH stock solution (6 mM) was prepared by dissolving NADPH into buffer 0.1 M Potassium Phosphate buffer, 1.0 mM EDTA, pH 7.4. […] For 0-min, 135 μL of ACN containing IS was added to the wells of 0-min plate and then 15 μL of NADPH stock solution (6 mM) was added. 15 μL of NADPH stock solution (6 mM) was added to the samples designated as 0-, 5-, 10-, 20-, 30-min, 60-min; 15 μL of buffer 0.1 M Potassium Phosphate buffer, 1.0 mM EDTA, pH 7.4, was added to the samples designated as 60-min without NADPH. At 5-min, 10-min, 20-min, and 30-min, 60-min 135 μL of ACN containing IS was added to the wells of corresponding plates, respectively, to stop the reaction. […] 50 μL of the supernatant from each well was transferred into a 96-well sample plate containing 50 μL of ultra pure water (Millipore, ZMQS50FOI) and analyzed by LC/MS.

[3] = Liver microsome stability, mouse; type: in vitro ADME; settings: liver microsomes, read-out: Microsome Stability Mouse t1/2
Protocol: as §4, §5, §6

[4] = Plasma stability, human plasma; type: in vitro ADME; settings: 37 °C, read-out: Plasma Stability Human t1/2
Protocol: as §4
(§7) Protocol for plasma stability for early screen macrocycles (Method A):
(§8) Frozen plasma was thawed by placing at 37° C. quickly and centrifuged at 3,000 rpm for 8 minutes to remove clots. Then the supernatant was pipetted and pooled as the plasma to be used in the experiment. The plasma was placed on ice until used. The test compounds and reference compounds spiking solution was prepared as a 2.5 mM test compounds spiking solution A: Add 20 μL of 10 mM test compounds stock solution to 60 μL DMSO. 0.1 mM Spiking solution B was prepared: Add 40 μL of spiking solution A to 960 μL of […] Sodium phosphate buffer with 0.5% BSA. […] For 0-min, 400 μL of ACN containing IS was added to the wells of 0-min plate and then 90 μL of plasma was added. […] 50 μL of the supernatant was transferred from each well into a 96-well sample plate containing 120 μL of ultra pure water (Millipore, ZMQS50F01) and analyzed by LC/MS.
(§9) Protocol for plasma stability (Method B):
(§10) The frozen plasma was thawed in a 37° C. water bath and then, if needed, adjusted to pH=7.4 then preheated in a 37° C. incubator. The test article was dissolved in 10% DMSO/water and spiked into plasma pre-plated into 96 well plates at a final concentration of 1 μM. Discrete incubations were performed at 37° C. and included 5 time points: t=0, 2, 5, 15, and 30 min. Samples were then crashed with 4× volume, ice cold 20% water/80% acetonitrile and spun at 4000 g for 10 mins. The supernatant was dried down and reconstituted with water and analyzed by LC-MS/MS. The half life in minute was calculated.

[5] = Chemical stability in phosphate buffered saline (PBS); type: physicochemical; settings: 50 μM prodrug
Protocol: as §1, §2, §3

[6] = Plasma stability, mouse plasma; type: in vitro ADME; settings: 37 °C, read-out: Plasma Stability Mouse t1/2
Protocol: as §4, §7, §8, §9, §10

## [2H]C([2H])([2H])N(CCO)C(=N)NC(=O)CCCCCCCCCC [Compound 9]
[1]; Table 2A
  Chemical Stability SGF, no enzyme % T0 at 2 hours at 37 °C.: 99%
[2]; pH 7.4, Table 2A
  half-life at 10 μM: < 0.0833 h
[3]; pH 7.4, Table 2A
  half-life at 10 μM: < 0.0833 h
[4]; Table 2A
  half-life: > 3 h
[5]; Table 2A
  Chemical Stability PBS % T0 at 2 hours at 37 °C.: 0%
[6]; Table 2A
  half-life: 0.55 h

## [2H]C([2H])([2H])N(CC(=O)[O-])C(=N)NC(=O)CCCCCCCCCCCC.[Na+] [Compound 29]
[1]; Table 2A
  Chemical Stability SGF, no enzyme % T0 at 2 hours at 37 °C.: 91%
[2]; pH 7.4, Table 2A
  half-life at 10 μM: 0.983 h
[3]; pH 7.4, Table 2A
  half-life at 10 μM: 1.83 h
[4]; Table 2A
  half-life: > 3 h
[5]; Table 2A
  Chemical Stability PBS % T0 at 2 hours at 37 °C.: 64%
[6]; Table 2A
  half-life: > 3 h

## [2H]C([2H])([2H])N(CC(=O)[O-])C(=N)NC(=O)CCCCCCCCCC(C)O.[Na+] (stereo not shown) [Compound 57]
[1]; Table 2B
  Chemical Stability SGF, no enzyme % T0 at 2 hours at 37 °C.: 89%
[2]; pH 7.4, Table 2B
  half-life at 10 μM: > 1.5 h
[3]; pH 7.4, Table 2B
  half-life at 10 μM: > 1.5 h
[4]; Table 2B
  half-life: > 3 h
[5]; Table 2B
  Chemical Stability PBS % T0 at 2 hours at 37 °C.: 78%
[6]; Table 2B
  half-life: > 3 h

## [2H]C([2H])([2H])N(CC(=O)OC(C)(C)C(C)(C)O)C(=N)NC(=O)CCCCCCCCCC [Compound 61]
[1]; Table 2B
  Chemical Stability SGF, no enzyme % T0 at 2 hours at 37 °C.: 99%
[2]; pH 7.4, Table 2B
  half-life at 10 μM: < 0.0833 h
[3]; pH 7.4, Table 2B
  half-life at 10 μM: < 0.0833 h
[4]; Table 2B
  half-life: < 0.0833 h
[5]; Table 2B
  Chemical Stability PBS % T0 at 2 hours at 37 °C.: 106%
[6]; Table 2B
  half-life: < 0.0833 h

## [2H]C([2H])([2H])N(CC(=O)OC(C)(C)C(C)C)C(=N)NC(=O)CCCCCCCCCC [Compound 62]
[1]; Table 2B
  Chemical Stability SGF, no enzyme % T0 at 2 hours at 37 °C.: 103%
[2]; pH 7.4, Table 2B
  half-life at 10 μM: < 0.0833 h
[3]; pH 7.4, Table 2B
  half-life at 10 μM: < 0.0833 h
[4]; Table 2B
  half-life: > 3 h
[5]; Table 2B
  Chemical Stability PBS % T0 at 2 hours at 37 °C.: 62%
[6]; Table 2B
  half-life: 1.27 h

## [2H]C([2H])([2H])N(CC(=O)[O-])C(=N)NC(=O)CCCC/C=C\CCCCCCCCCCC.[Na+] [Compound 25]
[1]; Table 2A
  Chemical Stability SGF, no enzyme % T0 at 2 hours at 37 °C.: 72%
[2]; pH 7.4, Table 2A
  half-life at 10 μM: > 2.42 h
[3]; pH 7.4, Table 2A
  half-life at 10 μM: > 2.42 h
[4]; Table 2A
  half-life: > 3 h
[5]; Table 2A
  Chemical Stability PBS % T0 at 2 hours at 37 °C.: 89%
[6]; Table 2A
  half-life: > 3 h

## [2H]C([2H])([2H])N(CC(=O)[O-])C(=N)NC(=O)CCCCCCCC.[Na+] [Compound 36]
[1]; Table 2A
  Chemical Stability SGF, no enzyme % T0 at 2 hours at 37 °C.: 99%
[2]; pH 7.4, Table 2A
  half-life at 10 μM: 1.7 h
[3]; pH 7.4, Table 2A
  half-life at 10 μM: > 2.42 h
[4]; Table 2A
  half-life: > 3 h
[5]; Table 2A
  Chemical Stability PBS % T0 at 2 hours at 37 °C.: 106%
[6]; Table 2A
  half-life: > 3 h

## [2H]C([2H])([2H])N(CC(=O)[O-])C(=N)NC(=O)CCCCCCCCCCC.[Na+] [Compound 31]
[1]; Table 2A
  Chemical Stability SGF, no enzyme % T0 at 2 hours at 37 °C.: 98%
[2]; pH 7.4, Table 2A
  half-life at 10 μM: 0.983 h
[3]; pH 7.4, Table 2A
  half-life at 10 μM: > 2.42 h
[4]; Table 2A
  half-life: > 3 h
[5]; Table 2A
  Chemical Stability PBS % T0 at 2 hours at 37 °C.: 98%
[6]; Table 2A
  half-life: > 3 h

## [2H]C([2H])([2H])N(CC(=O)[O-])C(=N)NC(=O)CCCCCCCC.[Li+] [Compound 35]
[1]; Table 2A
  Chemical Stability SGF, no enzyme % T0 at 2 hours at 37 °C.: 86%
[2]; pH 7.4, Table 2A
  half-life at 10 μM: 1.08 h
[3]; pH 7.4, Table 2A
  half-life at 10 μM: > 2.42 h
[4]; Table 2A
  half-life: > 3 h
[5]; Table 2A
  Chemical Stability PBS % T0 at 2 hours at 37 °C.: 116%
[6]; Table 2A
  half-life: > 3 h

## [2H]C([2H])([2H])N(CC(=O)[O-])C(=N)NC(=O)CCCCCCC.[Na+] [Compound 38]
[1]; Table 2A
  Chemical Stability SGF, no enzyme % T0 at 2 hours at 37 °C.: 99%
[2]; pH 7.4, Table 2A
  half-life at 10 μM: > 2.42 h
[3]; pH 7.4, Table 2A
  half-life at 10 μM: > 2.42 h
[4]; Table 2A
  half-life: > 3 h
[5]; Table 2A
  Chemical Stability PBS % T0 at 2 hours at 37 °C.: 101%
[6]; Table 2A
  half-life: > 3 h

## Cl.[2H]C([2H])([2H])N(CC(=O)OC(C)(C)C)C(=N)NC(=O)CCCCCCCCCC [Compound 44]
[1]; Table 2A
  Chemical Stability SGF, no enzyme % T0 at 2 hours at 37 °C.: 86%
[1]; Table 2B
  Chemical Stability SGF, no enzyme % T0 at 2 hours at 37 °C.: 95%
[2]; pH 7.4, Table 2A
  half-life at 10 μM: 0.15 h
[2]; pH 7.4, Table 2B
  half-life at 10 μM: 0.15 h
[3]; pH 7.4, Table 2A
  half-life at 10 μM: < 0.0833 h
[3]; pH 7.4, Table 2B
  half-life at 10 μM: < 0.0833 h
[4]; Table 2A
  half-life: 1.67 h
[5]; Table 2A
  Chemical Stability PBS % T0 at 2 hours at 37 °C.: 42%
[5]; Table 2B
  Chemical Stability PBS % T0 at 2 hours at 37 °C.: 107%
[6]; Table 2A
  half-life: 0.133 h

## [2H]C([2H])([2H])N(CC(=O)OCC)/C(=N\C(=O)OC(C)(C)C)NC(=O)CCCCCCCCCC [Compound 47]
[1]; Table 2A
  Chemical Stability SGF, no enzyme % T0 at 2 hours at 37 °C.: 32%
[2]; pH 7.4, Table 2A
  half-life at 10 μM: 0.267 h
[3]; pH 7.4, Table 2A
  half-life at 10 μM: 0.0833 h
[4]; Table 2A
  half-life: 2.82 h
[5]; Table 2A
  Chemical Stability PBS % T0 at 2 hours at 37 °C.: 55%
[6]; Table 2A
  half-life: < 0.0833 h

## [2H]C([2H])([2H])N(CC(=O)O)C(=N)NC(=O)CCCCCCC/C=C\CCCCCC [Compound 28]
[1]; Table 2A
  Chemical Stability SGF, no enzyme % T0 at 2 hours at 37 °C.: 99%
[2]; pH 7.4, Table 2A
  half-life at 10 μM: 1.5 h
[3]; pH 7.4, Table 2A
  half-life at 10 μM: 1.4 h
[4]; Table 2A
  half-life: > 3 h
[5]; Table 2A
  Chemical Stability PBS % T0 at 2 hours at 37 °C.: 51%
[6]; Table 2A
  half-life: > 3 h

## [2H]C([2H])([2H])N(CC(=O)[O-])C(=N)NC(=O)CCCCCCCCCC.[K+] [Compound 33]
[1]; Table 2A
  Chemical Stability SGF, no enzyme % T0 at 2 hours at 37 °C.: 79%
[2]; pH 7.4, Table 2A
  half-life at 10 μM: 1.2 h
[3]; pH 7.4, Table 2A
  half-life at 10 μM: 1.77 h
[4]; Table 2A
  half-life: > 3 h
[5]; Table 2A
  Chemical Stability PBS % T0 at 2 hours at 37 °C.: 85%
[6]; Table 2A
  half-life: > 3 h

## [2H]C([2H])([2H])N(CC(=O)O)C(=N)NC(=O)c1cccnc1 [Compound 21]
[1]; Table 2A
  Chemical Stability SGF, no enzyme % T0 at 2 hours at 37 °C.: 74%
[2]; pH 7.4, Table 2A
  half-life at 10 μM: > 2.42 h
[3]; pH 7.4, Table 2A
  half-life at 10 μM: > 2.42 h
[4]; Table 2A
  half-life: > 3 h
[5]; Table 2A
  Chemical Stability PBS % T0 at 2 hours at 37 °C.: 105%
[6]; Table 2A
  half-life: > 3 h

## [2H]C([2H])([2H])N(CC(=O)[O-])C(=N)NC(=O)CCCCCCCCCCCO.[Na+] [Compound 56]
[1]; Table 2B
  Chemical Stability SGF, no enzyme % T0 at 2 hours at 37 °C.: 81%
[2]; pH 7.4, Table 2B
  half-life at 10 μM: > 1.5 h
[3]; pH 7.4, Table 2B
  half-life at 10 μM: > 1.5 h
[4]; Table 2B
  half-life: > 3 h
[5]; Table 2B
  Chemical Stability PBS % T0 at 2 hours at 37 °C.: 58%
[6]; Table 2B
  half-life: > 3 h
